# Data reported in patent US20260053759A1, “MESDOPETAM COMPOSITIONS” (ALKEM LABORATORIES LIMITED, priority 2022, published 2026).
# What was measured:
# [1] = main metabolites in man, present in plasma and urine; cited from earlier work
# [2] = cited from earlier work
# [3] = molecular target: dopamine D3 receptor (D3R) (Homo sapiens, UniProt P35462); conditions: antagonist; cited from earlier work
# rat stomachs = experiment: Gastric emptying in the rat model (phenol red method); assay type: in vivo, Male Wistar rats; conditions: mean ± SEM
# Description: This study aimed to investigate the prokinetic effects of Mesdopetam, a dopamine receptor antagonist, on rat stomachs by assessing gastric emptying at three different doses: 1.24 mg/kg, 2.48 mg/kg, and 3.72 mg/kg. Male Wistar rats were used as the animal model. Gastric emptying time was measured at specific time intervals post-administration, and the results were compared to determine the impact of Mesdopetam on gastric motility.
# • Animal Model: Male Wistar rats (250-300 g) were used for the study. • Drug Administration: Mesdopetam was administered orally to rats at three different doses: 1.24 mg/kg, 2.48 mg/kg, and 3.72 mg/kg. The control group received a placebo. • Experimental Groups: Rats were divided into four groups: control (receiving placebo) and three treatment groups (receiving Mesdopetam at the respective doses). • Measurement of Gastric Emptying: Gastric emptying time was measured using a non-invasive method, such as the phenol red method. Rats were fasted overnight before the experiment, and the drug was administered following the fasting period. • Data Collection: Gastric emptying time was recorded at specific time points post-treatment: 1 hour, 2 hours, 4 hours, and 8 hours. • Statistical Analysis: The data were analyzed using appropriate statistical tests (e.g., one-way ANOVA followed by post hoc tests) to determine significant differences in gastric emptying time between the control and treatment groups at each dose level.
# The results of the study are presented as mean gastric emptying time (in minutes) for each group at different time points post-treatment: […]
# Chain of dopamine D3 receptor (D3R) (P35462 whole entry): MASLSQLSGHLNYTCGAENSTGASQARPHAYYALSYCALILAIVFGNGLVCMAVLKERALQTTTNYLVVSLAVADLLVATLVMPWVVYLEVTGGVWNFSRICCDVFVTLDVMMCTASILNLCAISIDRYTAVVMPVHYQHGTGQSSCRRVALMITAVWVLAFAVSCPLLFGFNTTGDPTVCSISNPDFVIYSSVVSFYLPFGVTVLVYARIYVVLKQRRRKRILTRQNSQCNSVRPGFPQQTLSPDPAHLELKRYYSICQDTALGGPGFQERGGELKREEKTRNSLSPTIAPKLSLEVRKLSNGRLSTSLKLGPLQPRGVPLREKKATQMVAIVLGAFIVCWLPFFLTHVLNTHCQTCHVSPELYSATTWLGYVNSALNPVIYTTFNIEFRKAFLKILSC
structure (smiles),measurement,setting,value
CC(=O)NCCOc1cc(F)cc(S(C)(=O)=O)c1 [M2],pharmacological activity of metabolite,[1],pharmacologically inactive
CCN(CC)CCNC(=O)c1cc(Cl)c(N)cc1OC [metoclopramide],incidence of extrapyramidal reactions,[2]; aged and young patients,≤ 25%
same,reported incidence of extrapyramidal reactions,[2]; overall,0.2%
"CCCNCCOc1cc(F)cc(S(C)(=O)=O)c1 [Mesdopetam, [2-(3-fluoro-5-methylsulfonylphenoxy)ethyl]propan-1-amine]",Ki,[3],~0.09 µM
same,mean gastric emptying time,"rat stomachs; 1.24 mg/kg oral, 1 hour post-treatment",38.5 ± 1.8 min
same,mean gastric emptying time,"rat stomachs; 1.24 mg/kg oral, 2 hours post-treatment",32.4 ± 1.5 min
same,mean gastric emptying time,"rat stomachs; 1.24 mg/kg oral, 4 hours post-treatment",27.9 ± 1.3 min
same,mean gastric emptying time,"rat stomachs; 1.24 mg/kg oral, 8 hours post-treatment",24.6 ± 1.1 min
same,mean gastric emptying time,"rat stomachs; 2.48 mg/kg oral, 1 hour post-treatment",32.1 ± 1.6 min
same,mean gastric emptying time,"rat stomachs; 2.48 mg/kg oral, 2 hours post-treatment",26.9 ± 1.4 min
same,mean gastric emptying time,"rat stomachs; 2.48 mg/kg oral, 4 hours post-treatment",23.4 ± 1.2 min
same,mean gastric emptying time,"rat stomachs; 2.48 mg/kg oral, 8 hours post-treatment",19.8 ± 1.0 min
same,mean gastric emptying time,"rat stomachs; 3.72 mg/kg oral, 1 hour post-treatment",29.6 ± 1.4 min
same,mean gastric emptying time,"rat stomachs; 3.72 mg/kg oral, 2 hours post-treatment",23.8 ± 1.2 min
same,mean gastric emptying time,"rat stomachs; 3.72 mg/kg oral, 4 hours post-treatment",20.3 ± 1.0 min
same,mean gastric emptying time,"rat stomachs; 3.72 mg/kg oral, 8 hours post-treatment",17.5 ± 0.9 min
CS(=O)(=O)c1cc(F)cc(OCCN)c1 [M1],pharmacological activity of metabolite,[1],pharmacologically inactive
